Paper PMC11858207, “Discovery of Isobavachin, a Natural Flavonoid, as an Apolipoprotein E4 (ApoE4) Structure Corrector for Alzheimer’s Disease” (Molecules, 2025)
Where “and” joins values, the source holds several entries; their conditions need not be identical. Equal entries are not always repeated.

Legend:
[1] = target: T1, His-Sumo-DNPH1 (2′-deoxynucleoside 5′-phosphate N-hydrolase 1) (Homo sapiens, UniProt O43598); test: Surface plasmon resonance (SPR) binding, negative control protein
T1 construct: made in house; host or cells: E. coli
T1 sequence (O43598 1-174): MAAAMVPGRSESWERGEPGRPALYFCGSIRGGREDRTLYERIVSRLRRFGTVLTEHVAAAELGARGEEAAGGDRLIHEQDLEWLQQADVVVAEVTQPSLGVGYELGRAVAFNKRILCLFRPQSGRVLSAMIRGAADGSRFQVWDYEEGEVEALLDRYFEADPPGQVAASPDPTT
Description: (§1) The top virtual hit Isobavachin was further subjected to surface plasmon resonance (SPR) analysis using Biacore T200 (Cytiva, Marlborough, MA, USA) to determine its binding constants with both the ApoE3 and ApoE4 proteins. Together with the human recombinant ApoE3 and ApoE4 proteins, a negative control protein 2′-deoxynucleoside 5′-phosphate N-hydrolase (His-Sumo-DNPH1) was also included in the SPR analysis. The His-Sumo-DNPH1 is structurally unrelated to ApoE proteins, while having a similar size as ApoE proteins (~30 KDa).
(§2) The biophysical binding analysis of ligands with ApoE3 and ApoE4 proteins was carried out using the SPR technique. Human recombinant ApoE3 or ApoE4 proteins were purchased from PeproTech (Cranbury, NJ, USA) and reconstituted according to the manufacturer’s instructions. The negative control protein was His-Sumo-DNPH1 (2′-deoxynucleoside 5′-phosphate N-hydrolase 1), produced in-house in E. coli by The Wistar Institute, Philadelphia. The proteins were covalently attached to a carboxymethyl dextran sensor chip (CMD700M, from Xantec bioanalytics, Düsseldorf, Germany) using standard amine coupling in HEPES buffered saline. The chip is first conditioned for 180 s at 10 µL/min with 1 M NaCl, 0.1 mM Na Borate, pH 9.0, and then activated with 250 mM EDC/100 mM NHS for 600 s at 10 µL/min. The ApoE3/4 and DNPH1 proteins diluted in 10 mM sodium acetate (pH 5.5 and 4.0, respectively) were injected and immobilized on respective flow cells. After immobilization, the remaining activated sites were blocked with 1 M ethanolamine at 10 µL/min for 180 s. Test compounds (purchased from Cayman Chemical (Ann Arbor, MI, USA) and MedChemExpress (Monmouth Junction, NJ, USA)) were first diluted in pure DMSO, which were then further diluted in the running buffer without DMSO (10 mM HEPES, pH 7.4, 150 mM NaCl, 0.005% Tween20) to match the DMSO concentrations of the sample and the running buffer. The association and dissociation times were 60s and 120s, respectively, and the flow rate was 30 µL/min. After each compound injection, the needle was washed in 50% DMSO to reduce compound carry-over. Solvent correction cycles were also included to correct for bulk refractive index changes associated with DMSO.

[2] = target: T2, human recombinant ApoE4 (Homo sapiens, UniProt P02649, C130R); test: Surface plasmon resonance (SPR) binding, ApoE4; conditions: Biacore T200
T2 construct: purchased PeproTech
Description: as §1, §2

[3] = target: T3, human recombinant ApoE3 (Homo sapiens, UniProt P02649); test: Surface plasmon resonance (SPR) binding, ApoE3; conditions: Biacore T200
T3 construct: purchased PeproTech
Description: as §1, §2

[4] = target: ApoE4; set-up: method as in PMID 30933499; conditions: experimental ApoE4 binding Kd reported by AbbVie team; read-out: NMR Kd; cited from earlier work
[5] = set-up: method as in PMID 29425649; conditions: cited from earlier work

T3 sequence (P02649 19-317): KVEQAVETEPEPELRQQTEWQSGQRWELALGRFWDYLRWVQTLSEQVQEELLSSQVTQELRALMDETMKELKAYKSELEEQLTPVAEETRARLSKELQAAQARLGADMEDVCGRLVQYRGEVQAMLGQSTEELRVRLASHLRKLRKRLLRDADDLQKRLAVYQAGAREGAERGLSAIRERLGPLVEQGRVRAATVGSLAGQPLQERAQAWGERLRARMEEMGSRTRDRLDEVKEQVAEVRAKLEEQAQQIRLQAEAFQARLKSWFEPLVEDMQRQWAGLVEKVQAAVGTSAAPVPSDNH
T2 sequence (P02649 19-317 C130R): as the sequence (P02649 19-317) above, with C112R counted along it

DNPH1 Kd [1] | Kd [2] | Kd [3] | Kd [1] | SMILES | Kd [4] | blood–brain barrier (BBB) penetration [5]
No binding | 64 µM | 59 µM |  | CC(C)=CCc1cc2c(cc1O)O[C@H](c1ccc(O)cc1)CC2=O [Bavachin] |  | 
 |  |  |  | N=C(N)C1(c2cc(Cl)cc(-c3ccc(CO)c(Cl)c3)c2)CCC1 [compound 155557185] | 8 ± 3 µM | 
 | 77 µM | > 100 µM | > 100 µM | CC(C)=CCc1cc([C@@H]2CC(=O)c3ccc(O)c(CC=C(C)C)c3O2)ccc1O [Glabrol] |  | 
 |  |  |  | CC(C)(O)c1ccc(-c2cc(Cl)cc(C3(C(=N)N)CCC3)c2)cc1 [compound 137796780] | 30 ± 4 µM | 
 |  |  |  | CC(=O)NCc1ccc(-c2cc(Cl)cc(C3(C(=N)N)CCC3)c2)cc1 [compound 155563897] | 20 ± 3 µM | 
 | > 100 µM | > 100 µM | 69 µM | CC(C)=CCc1c(-c2ccc(O)cc2O)oc2c3c(cc(O)c2c1=O)OC(C)(C)C=C3 [Morusin] |  | 
 | ~0.54 µM and 0.54 µM | ~0.62 µM and 0.62 µM | > 100 µM | CC(C)=CCc1c(O)ccc2c1O[C@H](c1ccc(O)cc1)CC2=O [Isobavachin] |  | readily penetrate
 |  |  |  | CCNS(=O)(=O)c1ccc(-c2cc(Cl)cc(C3(C(=N)N)CCC3)c2)cc1 [compound 155552638] | 20 ± 4 µM | 
 |  |  |  | N=C(N)C1(c2cc(Cl)cc(-c3ccccc3)c2)CCC1 [compound 155530661] | 230 ± 24 µM | 
 | > 100 µM | > 100 µM | > 100 µM | O=c1c(-c2ccc(O)cc2)coc2cc(O)ccc12 [Daidzein] |  | 
 | > 100 µM | > 100 µM | > 100 µM | CC(C)=CCc1c(-c2ccc(O)cc2O)oc2c(CC=C(C)C)c(O)cc(O)c2c1=O [Mulberrin] |  | 
 |  |  |  | N=C(N)C1(c2cccc(Cl)c2)CCC1 [compound 83673143] | 900 ± 108 µM | 
 | 40 µM | 38 µM | > 100 µM | COc1cc(O)c(CC=C(C)C)c2c1C(=O)CC(c1ccc(O)cc1)O2 (stereo not shown) [Isoxanthohumol] |  | 

SMILES | DNPH1 Kd [1] | Kd [2] | Kd [3] | Kd [1] | Kd [4] | blood–brain barrier (BBB) penetration [5]
Oc1ccc(C2=Cc3ccc(O)cc3OC2)cc1 [Idronoxil] |  | > 100 µM | > 100 µM | > 100 µM |  | 
O=c1c(-c2ccc(O)cc2)coc2cc(O)cc(O)c12 [Genistein] |  | > 100 µM | > 100 µM | > 100 µM |  | 
